Among the data in patent US10745384B2, “Indazole derivatives as αv integrin antagonists” (BRISTOL-MYERS SQUIBB COMPANY, priority 2016, dated 2020) are IC50 values, retold here.

Counter-ions that a name gives are not always drawn.

The target in one assay is human αVβ5 (Homo sapiens, UniProt P06756+P18084). Kind of assay: human αVβ5 HTRF binding assay. As for the experimental part: (§1) All binding assays used the HTRF (homogeneous time resolved fluorescence) technology from Cisbio International, therefore all assays are described as HTRF binding assays. The assay results for the Examples are listed above together with the characterization data. The HTRF binding assays are established for the following integrins: human αVβ6, human αVβ1, human αVβ3, human αVβ5, and human αVβ8. All assays used the following assay buffer: 20 mM Tris, pH 7.4, 1 mM MgCl2, 1 mM MnCl2, 0.01% Tween 20, and 0.01% BSA. Alternatively, a SPA-based assay was used for evaluation of receptor binding.
(§2) The following describes the components and a representative procedure for the human αVβ6 HTRF binding assay: Recombinant human αVβ6 Integrin (R & D systems, 3817-AV) was biotinylated. Biotinylated human αVβ6 Integrin was added to assay vessel at a final concentration of 1.25 nM. FITC-conjugated fibronectin (Cytoskeleton, FNR02) was then added at the final concentration of 5 nM. The mixture was centrifuged at 600 rpm for three minutes using Thermo Fisher Heraeus Multifuge X3 centrifuge and then incubated at room temperature for an hour. Streptavidin Terbium (Cisbio international 610STLB) was then added at the final concentration of 0.625 nM. The resulting mixture was centrifuged at 600 rpm for three minutes using Thermo Fisher Heraeus Multifuge X3 centrifuge and then incubated at room temperature overnight in dark before reading HTRF signals. […]
(In general: TR-FRET usually uses a lanthanide donor and a delayed reading to cut background.)

In another assay the target is human αVβ1 (Homo sapiens, UniProt P05556+P06756). Kind of assay: human αVβ1 HTRF binding assay. As for the experimental part:
as §1
The following describes the components and a representative procedure for the human αVβ6 HTRF binding assay: Recombinant human αVβ6 Integrin (R & D systems, 3817-AV) was biotinylated. Biotinylated human αVβ6 Integrin was added to assay vessel at a final concentration of 1.25 nM. FITC-conjugated fibronectin (Cytoskeleton, FNR02) was then added at the final concentration of 5 nM. The mixture was centrifuged at 600 rpm for three minutes using Thermo Fisher Heraeus Multifuge X3 centrifuge and then incubated at room temperature for an hour. Streptavidin Terbium (Cisbio international 610STLB) was then added at the final concentration of 0.625 nM. The resulting mixture was centrifuged at 600 rpm for three minutes using Thermo Fisher Heraeus Multifuge X3 centrifuge and then incubated at room temperature overnight in dark before reading HTRF signals.
The SPA-based assay was carried out according to the protocol and procedures similar to the ones described in the following reference with appropriate modifications to agents and ligands which are readily understood by one skilled in the art: Pachter J A, Zhang R, Mayer-Ezell R., “Scintillation proximity assay to measure binding of soluble fibronectin to antibody-captured αVβ1 integrin” Anal Biochem. 1995 Sep. 1; 230(1):101-7.

The target of the next assay is human αVβ8 (Homo sapiens, UniProt P06756+P26012). Kind of assay: human αVβ8 HTRF binding assay. The procedure: as §1, §2
A further assay has as its target human αVβ3 (Homo sapiens, UniProt P05106+P06756). The assay can be described thus: human αVβ3 HTRF binding assay. As for the experimental part: as §1, §2
Another assay has as its target T1, human αVβ6 (Homo sapiens, UniProt P06756+P18564).
T1 construct: purchased R & D systems 3817-AV
Kind of assay: human αVβ6 HTRF binding assay. The following applies: recombinant human αVβ6 integrin, FITC-conjugated fibronectin. In outline:
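HTRF binding in 20 mM Tris pH 7.4 with 1 mM MgCl2, 1 mM MnCl2, 0.01% Tween 20 and 0.01% BSA. For αVβ6, biotinylated integrin (1.25 nM) and FITC-fibronectin (5 nM) were incubated 1 h at RT, then streptavidin-terbium (0.625 nM) was added overnight in the dark. An SPA-based fibronectin binding format was an alternative.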

human αVβ1, sequence (P06756 31-992 limits assumed): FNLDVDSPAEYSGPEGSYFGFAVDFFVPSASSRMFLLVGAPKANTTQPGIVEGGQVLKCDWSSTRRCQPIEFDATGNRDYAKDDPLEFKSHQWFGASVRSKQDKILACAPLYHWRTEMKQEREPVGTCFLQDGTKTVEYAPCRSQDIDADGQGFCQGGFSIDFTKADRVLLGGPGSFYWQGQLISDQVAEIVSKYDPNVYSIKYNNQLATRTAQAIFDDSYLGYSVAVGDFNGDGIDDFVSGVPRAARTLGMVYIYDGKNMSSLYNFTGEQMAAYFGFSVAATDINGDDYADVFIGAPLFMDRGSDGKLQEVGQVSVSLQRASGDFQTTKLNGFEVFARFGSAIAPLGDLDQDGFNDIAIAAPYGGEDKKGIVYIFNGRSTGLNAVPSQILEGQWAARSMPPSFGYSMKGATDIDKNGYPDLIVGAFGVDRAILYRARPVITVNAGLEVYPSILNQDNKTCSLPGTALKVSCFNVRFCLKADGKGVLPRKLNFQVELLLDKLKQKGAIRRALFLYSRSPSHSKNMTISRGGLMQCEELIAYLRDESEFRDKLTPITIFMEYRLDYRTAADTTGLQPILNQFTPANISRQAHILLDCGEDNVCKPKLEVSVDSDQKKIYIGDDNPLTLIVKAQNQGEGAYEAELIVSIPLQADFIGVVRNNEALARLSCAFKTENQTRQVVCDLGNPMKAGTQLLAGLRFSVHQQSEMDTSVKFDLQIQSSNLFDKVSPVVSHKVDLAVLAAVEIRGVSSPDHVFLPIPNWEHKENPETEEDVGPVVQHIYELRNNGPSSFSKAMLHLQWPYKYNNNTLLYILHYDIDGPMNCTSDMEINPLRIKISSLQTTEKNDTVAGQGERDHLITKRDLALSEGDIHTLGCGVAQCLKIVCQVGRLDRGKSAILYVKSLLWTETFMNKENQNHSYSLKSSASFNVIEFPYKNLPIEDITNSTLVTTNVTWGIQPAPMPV
human αVβ1, sequence (P05556 21-728 limits assumed): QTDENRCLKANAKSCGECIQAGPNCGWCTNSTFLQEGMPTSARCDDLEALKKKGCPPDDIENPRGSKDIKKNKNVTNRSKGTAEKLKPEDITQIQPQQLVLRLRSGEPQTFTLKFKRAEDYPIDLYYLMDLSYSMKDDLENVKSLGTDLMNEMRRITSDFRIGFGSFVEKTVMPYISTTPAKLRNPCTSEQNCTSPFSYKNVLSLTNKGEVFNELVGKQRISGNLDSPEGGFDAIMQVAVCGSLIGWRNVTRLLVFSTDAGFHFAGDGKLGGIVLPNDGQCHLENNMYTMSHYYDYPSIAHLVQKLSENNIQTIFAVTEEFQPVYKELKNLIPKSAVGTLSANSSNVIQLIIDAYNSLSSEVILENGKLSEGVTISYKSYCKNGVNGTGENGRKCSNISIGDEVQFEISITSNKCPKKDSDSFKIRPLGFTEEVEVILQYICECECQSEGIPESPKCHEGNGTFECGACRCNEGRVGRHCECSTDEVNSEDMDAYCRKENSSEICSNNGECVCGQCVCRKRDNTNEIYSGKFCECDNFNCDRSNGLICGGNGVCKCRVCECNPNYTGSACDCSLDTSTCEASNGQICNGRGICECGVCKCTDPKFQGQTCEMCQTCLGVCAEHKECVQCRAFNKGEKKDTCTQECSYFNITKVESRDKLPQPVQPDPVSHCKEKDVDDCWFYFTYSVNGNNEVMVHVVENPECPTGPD
T1 sequence (P06756 31-992 limits assumed): as the sequence (P06756 31-992 limits assumed) above
T1 sequence (P18564 22-707 limits assumed): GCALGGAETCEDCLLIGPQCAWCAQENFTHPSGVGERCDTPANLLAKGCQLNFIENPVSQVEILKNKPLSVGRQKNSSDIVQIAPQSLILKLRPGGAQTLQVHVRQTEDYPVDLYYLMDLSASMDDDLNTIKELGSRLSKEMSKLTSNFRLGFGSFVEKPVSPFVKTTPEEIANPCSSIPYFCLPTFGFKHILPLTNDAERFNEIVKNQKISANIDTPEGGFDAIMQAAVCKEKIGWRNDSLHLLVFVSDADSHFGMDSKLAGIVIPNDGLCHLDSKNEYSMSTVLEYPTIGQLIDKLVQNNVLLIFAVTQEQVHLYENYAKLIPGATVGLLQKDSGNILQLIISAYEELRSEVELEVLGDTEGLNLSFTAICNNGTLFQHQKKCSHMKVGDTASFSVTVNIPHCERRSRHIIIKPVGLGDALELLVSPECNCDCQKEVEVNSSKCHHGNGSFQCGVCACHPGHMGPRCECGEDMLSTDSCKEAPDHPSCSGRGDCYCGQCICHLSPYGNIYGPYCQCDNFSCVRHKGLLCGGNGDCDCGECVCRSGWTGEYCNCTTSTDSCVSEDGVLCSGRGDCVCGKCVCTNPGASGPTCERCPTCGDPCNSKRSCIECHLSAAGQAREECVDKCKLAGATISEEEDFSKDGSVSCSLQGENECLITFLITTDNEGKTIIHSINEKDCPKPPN
human αVβ8, sequence (P06756 31-992 limits assumed): as the sequence (P06756 31-992 limits assumed) above
human αVβ8, sequence (P26012 43-684 limits assumed): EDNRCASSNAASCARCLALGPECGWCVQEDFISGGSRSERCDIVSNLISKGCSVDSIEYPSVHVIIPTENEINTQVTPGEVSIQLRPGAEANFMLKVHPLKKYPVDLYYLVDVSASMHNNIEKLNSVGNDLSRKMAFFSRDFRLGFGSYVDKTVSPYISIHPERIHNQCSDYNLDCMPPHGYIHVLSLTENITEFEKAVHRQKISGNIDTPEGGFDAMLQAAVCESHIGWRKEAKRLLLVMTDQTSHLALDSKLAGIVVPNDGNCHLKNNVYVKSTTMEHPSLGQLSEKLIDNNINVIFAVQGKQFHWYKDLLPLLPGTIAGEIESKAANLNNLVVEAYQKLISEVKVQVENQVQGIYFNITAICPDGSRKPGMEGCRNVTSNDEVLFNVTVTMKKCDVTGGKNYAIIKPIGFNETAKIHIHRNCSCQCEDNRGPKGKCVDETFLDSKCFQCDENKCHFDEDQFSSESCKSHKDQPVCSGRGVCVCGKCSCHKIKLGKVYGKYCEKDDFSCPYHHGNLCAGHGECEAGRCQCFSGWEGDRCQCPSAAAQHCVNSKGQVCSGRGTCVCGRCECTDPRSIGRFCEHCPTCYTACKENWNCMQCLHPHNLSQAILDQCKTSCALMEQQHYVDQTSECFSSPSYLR
human αVβ5, sequence (P06756 31-992 limits assumed): as the sequence (P06756 31-992 limits assumed) above
human αVβ5, sequence (P18084 24-719 limits assumed): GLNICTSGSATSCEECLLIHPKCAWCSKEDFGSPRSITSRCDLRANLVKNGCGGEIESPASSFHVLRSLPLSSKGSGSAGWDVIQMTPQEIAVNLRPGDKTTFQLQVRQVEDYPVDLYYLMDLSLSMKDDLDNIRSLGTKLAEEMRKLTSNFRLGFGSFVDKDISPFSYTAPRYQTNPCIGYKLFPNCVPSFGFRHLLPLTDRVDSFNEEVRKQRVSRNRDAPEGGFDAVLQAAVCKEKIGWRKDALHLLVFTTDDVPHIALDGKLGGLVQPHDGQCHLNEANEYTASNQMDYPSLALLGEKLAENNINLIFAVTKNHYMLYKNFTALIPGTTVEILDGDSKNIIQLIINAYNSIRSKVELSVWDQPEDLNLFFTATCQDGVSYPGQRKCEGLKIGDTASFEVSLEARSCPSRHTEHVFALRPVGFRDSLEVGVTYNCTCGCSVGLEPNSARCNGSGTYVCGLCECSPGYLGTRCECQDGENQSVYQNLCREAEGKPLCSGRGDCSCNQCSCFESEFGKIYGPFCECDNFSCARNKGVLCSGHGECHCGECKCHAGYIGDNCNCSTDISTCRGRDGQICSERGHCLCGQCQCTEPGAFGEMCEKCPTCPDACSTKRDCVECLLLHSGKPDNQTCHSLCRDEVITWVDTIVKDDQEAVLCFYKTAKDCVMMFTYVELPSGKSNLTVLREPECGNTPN
human αVβ3, sequence (P06756 31-992 limits assumed): as the sequence (P06756 31-992 limits assumed) above
human αVβ3, sequence (P05106 27-718 limits assumed): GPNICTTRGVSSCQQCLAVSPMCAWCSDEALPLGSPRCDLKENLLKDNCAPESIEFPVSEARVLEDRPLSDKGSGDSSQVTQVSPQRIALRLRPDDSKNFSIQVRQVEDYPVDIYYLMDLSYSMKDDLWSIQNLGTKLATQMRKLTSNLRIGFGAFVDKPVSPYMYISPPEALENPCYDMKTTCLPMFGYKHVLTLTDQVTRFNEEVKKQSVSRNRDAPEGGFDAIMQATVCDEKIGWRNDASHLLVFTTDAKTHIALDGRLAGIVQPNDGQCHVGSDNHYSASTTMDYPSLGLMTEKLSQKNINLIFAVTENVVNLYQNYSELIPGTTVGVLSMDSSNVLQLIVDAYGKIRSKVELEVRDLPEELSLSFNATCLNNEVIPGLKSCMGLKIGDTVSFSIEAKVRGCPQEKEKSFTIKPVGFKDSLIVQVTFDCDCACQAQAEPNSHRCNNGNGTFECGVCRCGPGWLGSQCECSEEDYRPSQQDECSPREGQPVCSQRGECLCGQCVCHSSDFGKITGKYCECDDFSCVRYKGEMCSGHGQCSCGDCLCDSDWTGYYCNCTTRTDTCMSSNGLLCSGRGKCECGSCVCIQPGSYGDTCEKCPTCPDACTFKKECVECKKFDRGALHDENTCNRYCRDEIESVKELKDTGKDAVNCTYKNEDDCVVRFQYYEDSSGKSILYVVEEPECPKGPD

One may read the IC50 as the concentration at which inhibition is half-maximal. Take `O=C(O)CC(c1cnc2c(c1)OCCN2)n1ncc2cc(OCCc3ccc4c(n3)NCCC4)ccc21` (stereo not shown) [Example 97, TFA]: the IC50 at human αVβ5 was 0.59 nM; on human αVβ1 it was 100 nM; at human αVβ8, 5000 nM; on human αVβ3 it was 2.6 nM; at human αVβ6, 10 nM.
As for `O=C(O)CC(c1cnc2ccccc2n1)n1ncc2cc(OCCc3ccc4c(n3)NCCC4)ccc21` (racemic) [Example 15, (±)-3-(Quinoxalin-2-yl)-3-(5-(2-(5,6,7,8-tetrahydro-1,8-naphthyridin-2-yl)ethoxy)-1H-indazol-1-yl)propanoic acid], the IC50 at human αVβ5 was 0.31 nM; on human αVβ1 it was 270 nM; at human αVβ8, 1500 nM; on human αVβ3, 2.7 nM; at human αVβ6, 6 nM.
On to `O=C(O)CC(c1cncc(-c2cnco2)c1)n1ncc2cc(OCCc3ccc4c(n3)NCCC4)ccc21` (stereo not shown) [Example 121, 3-(5-(Oxazol-5-yl)pyridin-3-yl)-3-(5-(2-(5,6,7,8-tetrahydro-1,8-naphthyridin-2-yl)ethoxy)-1H-indazol-1-yl)propanoic acid], for which the IC50 came to 0.46 nM at human αVβ5; 71 nM at human αVβ1; 2600 nM at human αVβ8; 3.1 nM at human αVβ3; 8.8 nM on human αVβ6.
On to `O=C(O)C[C@@H](c1cnc2ccccc2n1)n1ncc2cc(OCCc3ccc4c(n3)NCCC4)ccc21` [Example 17, (S)-3-(quinoxalin-2-yl)-3-(5-(2-(5,6,7,8-tetrahydro-1,8-naphthyridin-2-yl)ethoxy)-1H-indazol-1-yl)propanoic acid], for which the IC50 at human αVβ5 was 0.25 nM; at human αVβ1, 190 nM; at human αVβ8, 1900 nM; at human αVβ3, 2.1 nM; on human αVβ6, 4.2 nM.
As for `CCOc1ncc(C(CC(=O)O)n2ncc3cc(OCCc4ccc5c(n4)NCCC5)ccc32)cn1` (stereo not shown) [Example 77, 3-(2-Ethoxypyrimidin-5-yl)-3-(5-(2-(5,6,7,8-tetrahydro-1,8-naphthyridin-2-yl)ethoxy)-1H-indazol-1-yl)propanoic acid, TFA], the IC50 stood at 0.39 nM on human αVβ5; 170 nM at human αVβ1; 5000 nM on human αVβ8; 2.8 nM on human αVβ3; 5.8 nM on human αVβ6.
`Cn1cc2cc(C(CC(=O)O)n3ncc4cc(OCCc5ccc6c(n5)NCCC6)ccc43)cnc2n1` (stereo not shown) [Example 120, 3-(2-Methyl-2H-pyrazolo[3,4-b]pyridin-5-yl)-3-(5-(2-(5,6,7,8-tetrahydro-1,8-naphthyridin-2-yl)ethoxy)-1H-indazol-1-yl)propanoic acid, 2 TFA]: the IC50 was found to be 0.2 nM at human αVβ5; 200 nM at human αVβ1; 7500 nM on human αVβ8; 1.5 nM on human αVβ3; 16 nM at human αVβ6.
Regarding `O=C(O)CC(c1cnc2[nH]ncc2c1)n1ncc2cc(OCCc3ccc4c(n3)NCCC4)ccc21` (stereo not shown) [Example 106, 3-(1H-Pyrazolo[3,4-b]pyridin-5-yl)-3-(5-(2-(5,6,7,8-tetrahydro-1,8-naphthyridin-2-yl)ethoxy)-1H-indazol-1-yl)propanoic acid, 2 TFA], the IC50 on human αVβ5 amounted to 2.6 nM; on human αVβ1, 78 nM; on human αVβ8, 3000 nM; on human αVβ3, 1.3 nM; at human αVβ6, 23 nM.
For the molecule `O=C(O)C[C@@H](c1cnc2ccccc2c1)n1cc2ccc(CCC3CCc4cccnc4N3)cc2n1` (stereo partly drawn) [Example 83, (3S)-3-(Quinolin-3-yl)-3-(6-(2-(1,2,3,4-tetrahydro-1,8-naphthyridin-2-yl)ethyl)-2H-indazol-2-yl)propanoic acid], the IC50 at human αVβ5 was found to be 2.2 nM; on human αVβ1 it was 360 nM; on human αVβ8, 5000 nM; on human αVβ3, 4.1 nM; at human αVβ6, 4.7 nM.
